How the values were obtained:
[1] = system: mRNA expressed from the genes (A) to (D) in rat liver; assay: Behavior of genes (mRNA expression level, oligo-DNA microarray) in rat liver after 28-day oral administration; format: in vivo; conditions: mRNA vs vehicle control group
Outline: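 Rat liver RNA after 28 days of daily gavage dosing (male F344, 5 weeks old, four per group). A change reaching 1.5-fold, or 1/1.5, against solvent control scores as significant; opposite direction versus another carcinogen scores as not significant.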

liver = conditions: in vivo; cited from earlier work
rodent = conditions: in vivo; cited from earlier work
[2] = gene group (A), Unigene No. Rn.167075
[3] = gene group (C), Unigene No. Rn.120914

C=CCc1ccc2c(c1)OCO2 [TS025, Safrole]
C+: Carcinogenicity (rodent)
Cr+: Liver carcinogenicity (liver)
−: Behavior of gene caused by administration of chemical substance, Gene No. 2026 [1, 2] | Behavior of gene caused by administration of chemical substance, Gene No. 1163 ([1]; gene group (C), Unigene No. Rn.11766) | Behavior of gene caused by administration of chemical substance, Gene No. 1334 [1, 3] | Behavior of gene caused by administration of chemical substance, Gene No. 6620 [1, 3] | Behavior of gene caused by administration of chemical substance, Gene No. 5878 ([1]; gene group (C), Unigene No. Rn.143213) | Behavior of gene caused by administration of chemical substance, Gene No. 1131 ([1]; gene group (C), Unigene No. Rn.144946) | Behavior of gene caused by administration of chemical substance, Gene No. 1562 ([1]; gene group (C), Unigene No. Rn.14744) | Behavior of gene caused by administration of chemical substance, Gene No. 893 ([1]; gene group (C), Unigene No. Rn.164817) | Behavior of gene caused by administration of chemical substance, Gene No. 6026 ([1]; gene group (C), Unigene No. Rn.167685) | Behavior of gene caused by administration of chemical substance, Gene No. 1993 ([1]; gene group (C), Unigene No. Rn.18728) | Behavior of gene caused by administration of chemical substance, Gene No. 2494 ([1]; gene group (C), Unigene No. Rn.23969) | Behavior of gene caused by administration of chemical substance, Gene No. 2546 ([1]; gene group (C), Unigene No. Rn.24561) | Behavior of gene caused by administration of chemical substance, Gene No. 3929 ([1]; gene group (C), Unigene No. Rn.4620) | Behavior of gene caused by administration of chemical substance, Gene No. 1119 ([1]; gene group (C), Unigene No. Rn.9757) | Behavior of gene caused by administration of chemical substance, Gene No. 5726 ([1]; gene group (D), Unigene No. Rn.9939)
+: Behavior of gene caused by administration of chemical substance, Gene No. 4846 ([1]; gene group (A), Unigene No. Rn.144554) | Behavior of gene caused by administration of chemical substance, Gene No. 4218 [1, 2] | Behavior of gene caused by administration of chemical substance, Gene No. 6182 ([1]; gene group (A), Unigene No. Rn.5834) | Behavior of gene caused by administration of chemical substance, Gene No. 5600 ([1]; gene group (A), Unigene No. Rn.9836) | Behavior of gene caused by administration of chemical substance, Gene No. 1494 ([1]; gene group (B), Unigene No. Rn.1430) | Behavior of gene caused by administration of chemical substance, Gene No. 2045 ([1]; gene group (B), Unigene No. Rn.19329) | Behavior of gene caused by administration of chemical substance, Gene No. 2203 ([1]; gene group (B), Unigene No. Rn.21240) | Behavior of gene caused by administration of chemical substance, Gene No. 533 ([1]; gene group (C), Unigene No. Rn.106184) | Behavior of gene caused by administration of chemical substance, Gene No. 725 ([1]; gene group (C), Unigene No. Rn.108075) | Behavior of gene caused by administration of chemical substance, Gene No. 4973 ([1]; gene group (C), Unigene No. Rn.118529) | Behavior of gene caused by administration of chemical substance, Gene No. 4095 ([1]; gene group (C), Unigene No. Rn.119024) | Behavior of gene caused by administration of chemical substance, Gene No. 6303 ([1]; gene group (C), Unigene No. Rn.123063) | Behavior of gene caused by administration of chemical substance, Gene No. 1741 ([1]; gene group (C), Unigene No. Rn.1647) | Behavior of gene caused by administration of chemical substance, Gene No. 154 ([1]; gene group (C), Unigene No. Rn.185941) | Behavior of gene caused by administration of chemical substance, Gene No. 813 ([1]; gene group (C), Unigene No. Rn.201760) | Behavior of gene caused by administration of chemical substance, Gene No. 3776 ([1]; gene group (C), Unigene No. Rn.43232) | Behavior of gene caused by administration of chemical substance, Gene No. 6742 ([1]; gene group (C), Unigene No. Rn.9779) | Behavior of gene caused by administration of chemical substance, Gene No. 5634 ([1]; gene group (C), Unigene No. Rn.9862)

Source: patent US20110039721A1, “METHOD FOR PREDICTION ABOUT CARCINOGENICITY OF SUBSTANCE IN RODENT” (Chemicals Evaluation and Research Institute, priority 2007, published 2011)
